How the values were obtained:
[1] = MTT assay for cell viability / cytotoxicity; type: cell-based; details: mouse, RAW 264.7 macrophages, means ± SD of three independent experiments
Procedure: In addition to NO inhibition, the cytotoxic activity of compounds 1a–i, 2a–i, 3a–h, and 4a–h in RAW 264.7 macrophages were measured using the 3-(4,5-dimethylthiazol-2-yl)-2,5-diphenyltetrazolium bromide (MTT) assay to check whether the effects on the production of NO was caused by nonspecific cytotoxicity.
(§1) Cell culture and sample treatment were performed as reported in the literature. The 3-(4,5-dimethylthiazol-2-yl)-2,5-diphenyltetrazolium bromide (MTT) assay for cell viability followed the procedure previously described in the literature. Nitrite determination was carried as described in the literature, and the PGE2 assay was carried as previously described.

[2] = system: LPS-induced RAW 264.7 macrophages; assay: PGE2 production inhibition in LPS-induced RAW 264.7 macrophages; type: cell-based; details: Mus musculus, means ± SD of three independent experiments; for inhibition at 1 µM: RAW264.7, 1 μM; for inhibition at 5 µM: RAW264.7, 5 μM; for inhibition at 10 µM: RAW264.7, 10 μM; for IC50: RAW264.7, LPS-induced RAW 264.7 macrophages
Procedure: Compounds 1b, 1g, 2a, and 2c were able to inhibit more than 50% of the prostaglandin production at a dose 5 μM. The five compounds were able to reduce PGE2 production by over 75% at a dose of 10 μM.
as §1

[3] = system: LPS-induced RAW 264.7 macrophages; assay: Nitric oxide (NO) production inhibition in LPS-induced RAW 264.7 macrophages (nitrite determination); type: cell-based; details: Mus musculus; for inhibition at 1 µM: RAW264.7, 1 µM; for inhibition at 1 µM / inhibition at 5 µM / inhibition at 10 µM: LPS-induced RAW 264.7 macrophages; for inhibition at 5 µM: RAW264.7, 5 µM; for inhibition at 10 µM: RAW264.7, 10 µM; for IC50: RAW264.7, nitric oxide production, means ± SD of three independent experiments, read-out: NO (IC50)
Procedure: The ability of a certain molecule to inhibit the production of inflammatory mediator(s) is one of successful approach to treatment both chronic and acute inflammation.
as §1

| Compound | IC50 [1] | inhibition at 1 µM [2] | inhibition at 5 µM [2] | inhibition at 10 µM [2] | IC50 [2] | melting point | inhibition at 1 µM [3] | inhibition at 5 µM [3] | inhibition at 10 µM [3] | IC50 [3] |
| --- | --- | --- | --- | --- | --- | --- | --- | --- | --- | --- |
| COc1cccc(-c2nn(-c3ccccc3)cc2-c2ccnc(NCCCNS(=O)(=O)c3ccc(Cl)cc3)c2)c1 [Compound 2c, 4-Chloro-N-(3-((4-(3-(3-methoxyphenyl)-1-phenyl-1H-pyrazol-4-yl)pyridin-2-yl)amino)propyl)benzenesulfonamide] | 289.9 ± 1.87 µM | 17.5 ± 1.51% | > 50% | 81.4 ± 2.94% | 4.68 ± 0.37 µM | 98 to 100 °C | 0.02 ± 0.01% | 24.7 ± 0.81% | 59.1 ± 0.93% | 8.68 ± 0.22 µM |
| COc1cccc(-c2nn(-c3ccccc3)cc2-c2ccnc(NCCNS(=O)(=O)c3ccccc3)c2)c1 [Compound 1a, N-(2-((4-(3-(3-Methoxyphenyl)-1-phenyl-1H-pyrazol-4-yl)pyridin-2-yl)amino)ethyl)benzenesulfonamide] | 245.8 ± 1.91 µM |  |  |  |  | 104 to 106 °C | 17.35 ± 0.09% | 35.4 ± 1.14% | 52.9 ± 3.12% | 9.17 ± 0.52 µM |
| Cc1ccc(S(=O)(=O)NCCCNc2cc(-c3cn(-c4ccccc4)nc3-c3cccc(O)c3)ccn2)cc1 [Compound 4e, N-(3-((4-(3-(3-Hydroxyphenyl)-1-phenyl-1H-pyrazol-4-yl)pyridin-2-yl)amino)propyl)-4-methylbenzenesulfonamide] | 23 ± 0.63 µM |  |  |  |  | 158 to 160 °C | 0.69 ± 0.01% | 18.6 ± 0.98% | 59.7 ± 0.7% | 8.82 ± 0.32 µM |
| COc1ccc(S(=O)(=O)NCCNc2cc(-c3cn(-c4ccccc4)nc3-c3cccc(OC)c3)ccn2)cc1 [Compound 1e, 4-Methoxy-N-(2-((4-(3-(3-methoxyphenyl)-1-phenyl-1H-pyrazol-4-yl)pyridin-2-yl)amino)ethyl)benzenesulfonamide] | 285 ± 4.18 µM |  |  |  |  | 144 to 146 °C | 13.52 ± 0.11% | 16.1 ± 0.09% | 41.5 ± 0.99% | 13.4 ± 0.72 µM |
| O=S(=O)(NCCNc1cc(-c2cn(-c3ccccc3)nc2-c2cccc(O)c2)ccn1)c1cccc(F)c1 [Compound 3g, 3-Fluoro-N-(2-((4-(3-(3-hydroxyphenyl)-1-phenyl-1H-pyrazol-4-yl)pyridin-2-yl)amino)ethyl)benzenesulfonamide] | 28.7 ± 0.74 µM |  |  |  |  | 146 to 148 °C | 16.2 ± 0.17% | 19.1 ± 0.89% | 37.7 ± 0.85% | 21.42 ± 0.17 µM |
| COc1cccc(-c2nn(-c3ccccc3)cc2-c2ccnc(NCCCNS(=O)(=O)c3ccc(Br)cc3)c2)c1 [Compound 2b, 4-Bromo-N-(3-((4-(3-(3-methoxyphenyl)-1-phenyl-1H-pyrazol-4-yl)pyridin-2-yl)amino)propyl)benzenesulfonamide] | 384.7 ± 1.29 µM |  |  |  |  | 117 to 119 °C | 0.01 ± 0.03% | 28.1 ± 0.66% | 52.4 ± 1.62% | 9.5 ± 0.34 µM |
| CS(=O)(=O)Nc1ccc([N+](=O)[O-])cc1OC1CCCCC1 [NS-398, N-(2-cyclohexyloxy-4-nitrophenyl)methanesulfonamide, reference compound] |  | 90.53 ± 0.53% | 95.78 ± 0.67% | 98.2 ± 1.5% | 0.00625 µM |  |  |  |  |  |
| O=S(=O)(NCCCNc1cc(-c2cn(-c3ccccc3)nc2-c2cccc(O)c2)ccn1)c1cccc(F)c1 [Compound 4g, 3-Fluoro-N-(3-((4-(3-(3-hydroxyphenyl)-1-phenyl-1H-pyrazol-4-yl)pyridin-2-yl)amino)propyl)benzenesulfonamide] | 9.35 ± 0.32 µM |  |  |  |  | 120 to 122 °C |  | 29.5 ± 0.86% | 51.1 ± 1.45% | 8.24 ± 0.41 µM |
| O=S(=O)(NCCCNc1cc(-c2cn(-c3ccccc3)nc2-c2cccc(O)c2)ccn1)c1ccc(Cl)cc1 [Compound 4c, 4-Chloro-N-(3-((4-(3-(3-hydroxyphenyl)-1-phenyl-1H-pyrazol-4-yl)pyridin-2-yl)amino)propyl)benzenesulfonamide] | 18.8 ± 0.68 µM |  |  |  |  | 166 to 168 °C | 0.86 ± 0.09% | 22 ± 0.42% | 47 ± 1.34% | 13.2 ± 0.52 µM |
| COc1cccc(-c2nn(-c3ccccc3)cc2-c2ccnc(NCCNS(=O)(=O)c3ccc(Cl)cc3)c2)c1 [Compound 1c, 4-Chloro-N-(2-((4-(3-(3-methoxyphenyl)-1-phenyl-1H-pyrazol-4-yl)pyridin-2-yl)amino)ethyl)benzenesulfonamide] | 219.39 ± 0.14 µM |  |  |  |  | 132 to 134 °C | 13.27 ± 0.08% | 24.76 ± 0.17% | 49.9 ± 1.25% | 10.1 ± 0.63 µM |
| COc1cccc(-c2nn(-c3ccccc3)cc2-c2ccnc(NCCCNS(=O)(=O)c3ccccc3)c2)c1 [Compound 2a, N-(3-((4-(3-(3-Methoxyphenyl)-1-phenyl-1H-pyrazol-4-yl)pyridin-2-yl)amino)propyl)benzenesulfonamide] | 346 ± 4.21 µM | 31.1 ± 1.14% | > 50% | 76.9 ± 4.99% | 4.87 ± 0.44 µM | 119 to 120 °C | 0.17 ± 0.03% | 30.2 ± 0.27% | 62.8 ± 3.25% | 8.04 ± 0.09 µM |
| COc1cccc(-c2nn(-c3ccccc3)cc2-c2ccnc(NCCCNS(=O)(=O)c3ccc(F)cc3)c2)c1 [Compound 2d, 4-Fluoro-N-(3-((4-(3-(3-methoxyphenyl)-1-phenyl-1H-pyrazol-4-yl)pyridin-2-yl)amino)propyl)benzenesulfonamide] | 260.3 ± 2.24 µM |  |  |  |  | 92 to 94 °C | 7.81 ± 0.03% | 23 ± 0.89% | 55 ± 4.01% | 12.4 ± 0.4 µM |
| COc1ccc(S(=O)(=O)NCCCNc2cc(-c3cn(-c4ccccc4)nc3-c3cccc(OC)c3)ccn2)cc1 [Compound 2e, 4-Methoxy-N-(3-((4-(3-(3-methoxyphenyl)-1-phenyl-1H-pyrazol-4-yl)pyridin-2-yl)amino)propyl)benzenesulfonamide] | > 400 µM |  |  |  |  | 124 to 126 °C | 2.02 ± 0.01% | 23.9 ± 1.12% | 50.2 ± 1.88% | 9.96 ± 0.18 µM |
| O=S(=O)(NCCNc1cc(-c2cn(-c3ccccc3)nc2-c2cccc(O)c2)ccn1)c1ccc(Br)cc1 [Compound 3b, 4-Bromo-N-(2-((4-(3-(3-hydroxyphenyl)-1-phenyl-1H-pyrazol-4-yl)pyridin-2-yl)amino)ethyl)benzenesulfonamide] | 24.3 ± 0.41 µM |  |  |  |  | 178 to 180 °C | 15.8 ± 0.16% | 24.4 ± 0.52% | 48.7 ± 1.74% | 10.6 ± 0.51 µM |

From article PMC6222820, “Synthesis of New Triarylpyrazole Derivatives Possessing Terminal Sulfonamide Moiety and Their Inhibitory Effects on PGE2 and Nitric Oxide Productions in Lipopolysaccharide-Induced RAW 264.7 Macrophages” (Molecules : A Journal of Synthetic Chemistry and Natural …, 2018)
